Experimental data reported in patent US4891319A, “Protection of proteins and the like” (Quadrant Bioresources Limited, priority 1985, dated 1990).

Assays:
[1] = test system: Rh D antigen; assay: titrated haemagglutination assay of dried human IgM anti-Rh D antibody; type: cell-based; conditions: for % activity retained in HA titre: dried antibody, sugar at 5% final concentration
Source text: (§1) They can then be stored at room temperature indefinitely.
3. Trehalose preserves 100% of the antibody activity. A test of five sugars all used at 5% final concentration in a titrated haemagglutination assay gave the following results.
(§2) An additional titration was done to establish whether there is an optimum concentration of trehalose for preservation. The antibodies tested were mouse monoclonal IgM anti A antibody, a mouse monoclonal IgM anti B antibody and a human monoclonal IgM anti Rh antibody used above. They were diluted to an appropriate starting concentration as follows: mouse anti A 1:10, mouse anti B 1:10, human anti Rh (to a final concentration of 20μg/ml). These were titrated 1:3 across a 96 well microtitre plate in Dulbecco's phosphate buffered saline (PBS) in a final volume of 50μl. To each horizontal 8 well row was added 50μl of trehalose at concentrations ranging from 10% w/v to 0.1% w/v. The wells were then dried at 37° overnight. Next day the wells were rehydrated with 100μl distilled water containing buffer sufficient to restore isotonicity. Then 50μl aliquots were transferred to a v-bottom microtitre plate and 25μl of 1% washed human red cells carrying the appropriate blood group antigens added and mixed. Haemagglutination titres were read after 2-3 hours at room temperature. […] With the anti Aantibody any trehalose concentration above 1% preserved maximal activity and with the anti B antibody any concentration above 0.5% preserved maximum activity.

[2] = test system: cellular organelles; conditions: loss of bound water; cited from earlier work
[3] = test system: R-phycoerythrin; assay: Fluorescence of R-phycoerythrin after drying with or without trehalose; type: physicochemical, marine Rhodophyte; conditions: trehalose-containing samples, stored in the dark for 10 months
Method: The phycobiliprotein R-phycoerythrin was purified from a marine Rhodophyte. This brilliantly fluorescent red protein was blotted onto nitrocellulose membrane or glass fibre filter paper in phosphate buffer with and without 10% w/v added trehalose and dried at room temperature.
R-phycoerythrin at 5 mg/ml was dried at 37° on glass fibre filter paper (Whatman GF/C), cellulose filter paper (Whatman No. 1) or on nitrocellulose membrane (Schleicher & Schull 0.45μ pore size) in the presence of 5% trehalose in solution and in its absence. In the absence of trehalose the spots of dried R-phycoerythrin changed colour to a purplish red and lost >90% of their fluorescence intensity.

[4] = test system: alkaline phosphate from calf intestine; assay: Preservation of dried alkaline phosphatase activity; type: biochemical; conditions: dried at 37° with 5% trehalose, 4 weeks at room temperature
Method: The mammalian enzyme alkaline phosphate from calf intestine was serially diluted in phosphate buffered saline (PBS) and added to the wells of a NUNC Immunoplate. After overnight incubation to bind the enzyme to the plastic surface, the wells were washed, shaken free of liquid, and dried at 37° in the presence or absence of 5% trehalose in distilled water. […] At the end of this time the wells were rehydrated with distilled water and substrate added. A positive control consisted of fresh dilutions of the enzyme. The activity of one enzyme was measured by the standard test of […] p-nitrophenylphosphate and monitoring the optical density at 405 nm.

[5] = test system: B blood group substance; assay: titrated haemagglutination assay of dried mouse IgM anti B antibody; type: cell-based, human; conditions: dried at 37° overnight
Method: as §1, §2

[6] = test system: rat lymphocytes; assay: Fluorescence microscopy of labelled rat lymphocytes; type: cell-based; conditions: dried with 10% added trehalose
Source text: Fluorescence microscopy using R-phycoerythrin as the fluorochrome was previously very inefficient because of fluorescence fading in aqueous mountants. This can be prevented by drying of the preparation and mounting in a non-polar mountant such as Gurr's Fluoromount, but drying destroys more than 90% of the fluorescence of R-phycoerythrin. This is prevented by drying in the presence of trehalose in the final buffer.
The anti CD4 monoclonal antibody W3/25 was coupled with biotin-linker-arm N-hydroxysuccinimide ester and used in saturating doses to label the T helper subset of rat lymphocytes. These labelled cells were then detected with a second stage staining using a streptavidin-R-phycoerythrin conjugate. After a final wash the cells were divided into four aliquots and one was examined in the FACS to illustrate correct labelling with these reagents. […] Smears were made and dried and then mounted in Fluoromount. The fourth aliquot was mounted wet in PBS. All three preparations were examined in a Zeiss photomicroscope II with Ploem optics.

[7] = test system: A blood group substance; assay: titrated haemagglutination assay of dried mouse IgM anti A antibody; type: cell-based, human; conditions: dried at 37° overnight
Method: as §1, §2

[8] = test system: guinea pig serum complement; assay: CH50 assay, preservation of dried serum complement; type: cell-based
Method: Guinea pig serum was prepared fresh and frozen in aliquots at -196° until use. As target cells, washed sheep erythrocytes (SRBC) which had been stored in Alsever's solution for up to 2 weeks were incubated with the bovine monoclonal anti-Forrsman antibody 94A1-AZA for 1 hr at 4° and then washed in complement fixation diluent (CFD). Freshly thawed guinea pig serum was diluted in CFD where required in flat bottom microtitre plate (NUNC, Denmark) and trehalose added at various concentrations. […] For the CH50 assay (P.J. Lachmann and M.J. Hobart in "Handbook of Experimental Immunology" ed. D.M. Weir, Blackwell 1978), dried or fresh complement was titrated out in a U bottom microtitre plate and sensitised SRBC added to a final concentration of 2%. […] The endpoint was measured as the cup in which 50% of the erythrocytes remained as a button.

[9] = test system: fixed red cells; assay: Drying of antigen- or antibody-coupled fixed red blood cells; type: cell-based; conditions: dried in the presence of trehalose
Source text: Upon rehydration the coupled, fixed red cells can be resuspended to form a perfect single cell suspension which then behaves as a fresh red cell suspension does in haemagglutination assays.

[10] = test system: rat IgG immunoglobulin; assay: indirect agglutination titre of dried or fresh sheep antiserum K237; type: cell-based
Method: A sheep antiserum to rat IgG immunoglobulin (K237) was titrated in a 96 well flat bottom microtitre plate as 1:3 steps (25μl serum in 50μl PBS). 50μl of 5% w/v trehalose in D.W was then added and the plate dried at 37° in a warm room for 48 hr.
The wells were reconstituted with 100μl distilled water. 50μl of the contents of each well were transferred to v bottom microtitre plates, DA rate erythrocytes were washed ×3 in saline and sensitized by incubation for 2 hr at RT with tissue culture supernatant of the monoclonal antibody R3/13 HLK which is specific for the A^a class 1 transplantation antigen on DA erythrocytes. The red cells were then washed x3 in saline and resuspended at 1% v/v in PBS +1% BSA. The sensitized rat erythrocytes were added. At the same time fresh K237 serum was titrated as above as a positive non-dried control.
The capacity for the dried and fresh serum to cause indirect agglutination of the red cells sensitized by the rat antibody R3/13 was then read.

[11] = test system: rat IgG; assay: indirect haemagglutination titre of K237 antiserum dried on matrices and eluted; type: cell-based; conditions: dried on Whatman No. 1 cellulose paper
Method: A number of different matrices were examined for use as a trehalose support. They include pure cellulose paper (Whatman No. 1 filter paper), glass fibre paper (What man GF/A and GF/C papers), polyurethane sponge foam and porous polyethylene sheet. These matrices were soaked in trehalose dissolved in distilled water at various concentrations from 10% down to 1% and dried at 37°. […] Various sera were applied to the paper and dried at 37°. After various periods of storage at 37+, samples were eluted with distilled water or normal saline; usually used in a volume 2-4 times that of the original serum sample so that their potency could be directly compared with fresh non-dried samples of the same sera.
K237, a sheep antiserum against rat IgG, was dried on to 10% trehalose-impregnated cellulose paper, glass fibre paper and porous polyethylene sheet and stored for 7 days at 37° C.
The paper or sheet was eluted with 4 volumes of normal saline and titrated in an indirect haemagllutination assay for its ability to agglutinate DA strain rat erythrocytes coated with a monoclonal antibody (JN2/85) against the class 1 antigens expressed on the erythrocyte membranes.
The same antiserum was then tested by drying on the Whatman No. 1 cellulose paper in the presence of various sugars and in the absence of sugar.

[12] = molar basis; cited from earlier work
[13] = test system: haemoglobin; assay: Spectral properties and gas exchange of dried haemoglobin; type: physicochemical; conditions: oxy and carboxy forms dried in the presence of trehalose
Source text: Many macromolecular functions require mobility of the macromolecule e.g. antibodies have to physically move into close proximity to their antigen in order for binding to occur through electrostatic and hydrophobic interactions. The same is true of enzymes binding their substrates. Minor molecular motion is also required for other macromolecular functions. Thus haemoglobin undergoes rotation and movement of certain amino acids during the reversible binding of oxygen and carbon dioxide. None of this molecular mobility is observed in the dry state.
In contrast, the fluorescence of R-phycoerythrin involves "movement" only on the sub atomic level. Absorption of light energy at low wavelengths e.g. (488 nm) causes electrons in the chromophores to shift to higher energy orbits. Fluorescence at longer wavelengths is due to the emission of photons when these electrons jump back to lower energy orbits. […] This method is therefore of great interest in the application of biological (and synthetic) macromolecules in new electronic applications. Examples include proton and electron pumping (such as is mediated, on exposure to light, by bacteriorhodopsin and rhodopsin). […]

[14] = test system: horseradish peroxidase; assay: Preservation of dried horseradish peroxidase activity; type: biochemical; conditions: dried with or without trehalose; compared with alkaline phosphatase

For `OC[C@H]1O[C@H](O[C@H]2[C@H](O)[C@@H](O)C(O)O[C@@H]2CO)[C@H](O)[C@@H](O)[C@@H]1O` (mixture of isomers) [maltose, reference compound], the “% activity retained in HA titre” value [1] was 11.1%.
For `OC[C@H]1O[C@H](O[C@H]2O[C@H](CO)[C@@H](O)[C@H](O)[C@H]2O)[C@H](O)[C@@H](O)[C@@H]1O` [Trehalose, α-D-glucopyranosyl-α-D-glucopyranoside], the “protection of cellular organelles compared with other carbohydrates” value [2] is given as “significantly superior to other carbohydrates”, the fluorescence after storage [3] is given as “without loss of fluorescence” and the “retention of enzyme activity” value [4] is given as “Full retention of activity”. For the same compound, the “trehalose concentration preserving maximum activity” value [5] was “above 0.5%”, the brilliantly fluorescent cells [6] was 75% and the “fading of fluorescent cells” value [6] was “did not fade”. The “fading of labelled cells on repeated examination” value ([6]; several weeks) was “no detectable fading”, the “trehalose concentration preserving maximal activity” value [7] was “above 1%” and the complement activity preserved ([8]; 25% serum, trehalose 0.15M and above) was 100%. The complement activity preserved ([8]; 50% normal serum, trehalose 0.22M and above) was 100%, the “prevention of loss of complement activity” value ([8]; dried with trehalose and reconstituted) was “completely prevented” and the “inhibition by high concentrations of trehalose” value ([8]; up to 0.5M, any concentration of serum) was “not inhibitory”. The “function of antibody or antigen coupled to fixed red cell membrane” value [9] was “completely preserves the function of the antibody or antigen”, the “preservation and resuspension of fixed red cells” value [9] was “completely preserves the fixed red cells themselves” and the “Titre (cups)” value ([10]; Dried + Trehalose (5% w/v, 37°, 48 hr)) was 7. The “antibody activity of whole serum preserved” value ([10]; dried with trehalose) was 100%, the “% activity retained in HA titre” value [1] was 100% and the “maximum preservation of activity” value ([1]; human antibody, 2.5% final trehalose, dried at 37° overnight) was 100%. The change in titre ([1]; human antibody, 5% final trehalose concentration) was “slight decrease in titre” and the “final concentration of trehalose at maximum preservation” value ([1]; human antibody, at the drying stage) was 2.5%.
For `O=C[C@H](O)[C@@H](O)[C@H](O)[C@H](O)CO` [glucose, reference compound], the “% activity retained in HA titre” value [1] was 1.2%.
With `OC[C@H]1O[C@H](OC[C@H]2O[C@H](O[C@]3(CO)O[C@H](CO)[C@@H](O)[C@@H]3O)[C@H](O)[C@@H](O)[C@@H]2O)[C@H](O)[C@@H](O)[C@H]1O` [raffinose, reference compound] the “difference from the untreated paper” value [11] was “No significant difference” and the “% activity retained in HA titre” value [1] was 3.7%.
In the case of `OC[C@H]1O[C@@](CO)(O[C@H]2O[C@H](CO)[C@@H](O)[C@H](O)[C@H]2O)[C@@H](O)[C@@H]1O` [sucrose, reference compound], the “difference from the untreated paper” value [11] is reported as “No significant difference” and the “% activity retained in HA titre” value [1] is reported as 11.1%.
For R Phycoerythrin, the “brightness relative to fluorescein” value [12] is listed as 20 times.
With haemoglobin the “spectral properties after drying” value [13] was “retain their spectral properties”.
For horseradish peroxidase, the “retention of enzyme activity” value [14] was “Identical results”.
